What was measured:
[1] = system: ALL-1 (Ph+ adult ALL, B-lineage) cell line; assay: Flow cytometric Annexin V-FITC/PI apoptosis assay; format: cell-based, human; conditions: Homo sapiens; ALL-1, side by side comparison; read-out: IC50 (apoptosis)
Source text: (§1) Cell lines and Apoptosis Assays. We used the human leukemia cell lines ALL-1 (Ph+ adult ALL, B-lineage), LOUCY (adult T-lineage ALL; ATCC® CRL-2629™), and RAJI (Burkitt's leukemia/lymphoma; ATCC®, CCL-86) as targets to evaluate the anti-leukemic activity of cinchona alkaloids. In vivo leukemia initiating xenograft clones capable of causing disseminated and fatal leukemia in NOD-SCID mice, derived from primary leukemia cells of 5 patients with relapsed ALL, and the aforementioned 3 leukemia cells lines were treated for 24 hours or 48 hours at 37° C. with cinchona alkaloids at increasing concentrations ranging from 0.5 μM to 50 μM. Controls cells were treated with vehicle (PBS).
(§2) Apoptotic death was monitored using multiparameter flow cytometry, as previously reported (Uckun, F. M. et al., British Journal of Haematology, 2011, 153:741-752; Uckun, F. M. et al., J Clin Invest., 2015, 125:1006-18). Controls included vehicle (PBS) treated cells (CON). Cells were analyzed for apoptosis using the standard quantitative flow cytometric apoptosis assay using the Annexin V-FITC Apoptosis Detection Kit from Sigma. The labeled cells were analyzed on a LSR II flow cytometer. The percent apoptosis was calculated using the formula: 100−100×(Percentage of non-apoptotic cells in test sample/Percentage of non-apoptotic cells in untreated control sample). The percentages for Annexin V FITC^−PI^− viable cells and Annexin V-FITC^+PI^+ advanced apoptotic cells for each sample are indicated in the respective quadrants of the depicted two-color fluorescence dot plots.
as §1, with “We” for “Cell lines and Apoptosis Assays. We”, “ARES-BI-C001453. […]” for “cinchona alkaloids.”, “ARES-BI-C001453” for “cinchona alkaloids”

[2] = system: LOUCY (adult T-lineage ALL) cell line; assay: Flow cytometric Annexin V-FITC/PI apoptosis assay; format: cell-based, human; conditions: Homo sapiens; LOUCY, side by side comparison; read-out: IC50 (apoptosis)
Source text: as §1, §2
as §1, with “We” for “Cell lines and Apoptosis Assays. We”, “ARES-BI-C001453. […]” for “cinchona alkaloids.”, “ARES-BI-C001453” for “cinchona alkaloids”

[3] = system: RAJI (Burkitt's leukemia/lymphoma) cell line; assay: Flow cytometric Annexin V-FITC/PI apoptosis assay; format: cell-based, human; conditions: Homo sapiens; RAJI, side by side comparison; read-out: IC50 (apoptosis)
Source text: as §1, §2
as §1, with “We” for “Cell lines and Apoptosis Assays. We”, “ARES-BI-C001453. […]” for “cinchona alkaloids.”, “ARES-BI-C001453” for “cinchona alkaloids”

[4] = system: BT-20 and PC-3 cells; assay: Clonogenic assay, pooled 4 experiments (2 PC-3, 2 BT-20); format: cell-based, human
Protocol: (§3) Clonogenic Assays. The cytotoxicity of cinchona alkaloids was tested against clonogenic human cancer cells was examined using a methylcellulose colony assay system, as described previously (Uckun, F. M. et al., J. Exp. Med., 1986, 163: 347-68; Uckun, F. M. et al., J. Clin. Invest., 1993, 91: 1044-1051). In brief, cells (10^5 cells/ml in RPMI-10% fetal bovine serum) were treated for 8 hours at 37° C. with cinchona alkaloids at varying concentrations. After treatment, cells were washed twice, and resuspended in clonogenic medium consisting of RPMI 1640 supplemented with 0.9% methylcellulose, 10% fetal bovine serum, and 50 μM 2-mercaptoethanol. Cells were plated at 5×10^4 cells/ml in RPMI 1640 supplemented with 10% fetal bovine serum, and 0.9% methylcellulose in duplicate 35-mm Petri dishes, and cultured for 7 days at 37° C. in a humidified 5% CO2 incubator. Subsequently, cancer cell colonies were enumerated on a grid using an inverted phase-contrast microscope of high optical resolution. Results were expressed as the % Inhibition=[1−(Number of colonies in compound-treated test cultures/Number of colonies in vehicle-treated control cultures)]×100.
as §3, with “cytotoxicity of synthetic dimeric cinchona alkaloids” for “cytotoxicity of cinchona alkaloids”

[5] = Flow cytometric Annexin V-FITC/PI apoptosis assay, combined data sets; format: cell-based; conditions: Homo sapiens, Raji, 24 or 48 hours treatment, 0.5-50 μM, read-out: estimated IC50 (apoptosis)
Source text: as §1
as §2, with “The percentages for Annexin V FITC^−PI^− viable cells and Annexin V-FITC^+PI^+ advanced apoptotic cells for each sample are indicated in the respective quadrants of the depicted two-color fluorescence dot plots.” left out

[6] = system: ALL-1 BCR-ABL/Ph+ B-lineage ALL cell line; assay: Clonogenic assay (methylcellulose colony assay); format: cell-based, human
Protocol: as §3
as §3, with “cytotoxicity of synthetic dimeric cinchona alkaloids” for “cytotoxicity of cinchona alkaloids”

[7] = system: BT-20 triple-negative breast cancer cell line; assay: Clonogenic assay (methylcellulose colony assay); format: cell-based, human
Protocol: as §3
as §3, with “cytotoxicity of synthetic dimeric cinchona alkaloids” for “cytotoxicity of cinchona alkaloids”

CCC1(O)CCN2CCC1C[C@@H]2[C@@H](Oc1nnc(O[C@H](c2ccnc3ccc(OC)cc23)[C@@H]2N3CC[C@H]4C(O)(CC)CC243)c2ccccc12)c1ccnc2ccc(OC)cc12 (mixture of isomers) [ARES-BI-C001453]
IC50 [1]: 0.78 µM | IC50 [2]: 0.042 µM | IC50 [3]: 8.9 µM | mean number of residual clones forming colonies ([4]; 1 μM, BT-20 and PC-3): 20.9±5.3 /5×10^4 cells | inhibition at 1 µM ([4]; Homo sapiens, 1 μM, 4 experiments (2 PC-3, 2 BT-20), read-out: inhibition of clonogenic growth (mean±SE)): 82.6 ± 8.1% | inhibition at 10 µM ([4]; Homo sapiens, 10 μM, BT-20 and PC-3, read-out: inhibition of clonogenic growth (mean±SE)): 99.2 ± 0.2% | IC50 [5]: 8.6 µM | in vitro colony formation by ALL-1 cells ([6]; 10 μM): abrogated the in vitro colony formation | Colonies/5 × 10^4 Cells ([6]; ALL-1 EXP#1, 1 μM): 27.5 Colonies/5 × 10^4 Cells | Colonies/5 × 10^4 Cells ([6]; ALL-1 EXP#1, 3 μM): 32.0 Colonies/5 × 10^4 Cells | Colonies/5 × 10^4 Cells ([6]; ALL-1 EXP#1, 10 μM): 0.0 Colonies/5 × 10^4 Cells | Colonies/5 × 10^4 Cells ([6]; ALL-1 EXP#2, 1 μM): 99.5 Colonies/5 × 10^4 Cells | Colonies/5 × 10^4 Cells ([6]; ALL-1 EXP#2, 3 μM): 14.5 Colonies/5 × 10^4 Cells | Colonies/5 × 10^4 Cells ([6]; ALL-1 EXP#2, 10 μM): 0.0 Colonies/5 × 10^4 Cells | inhibition at 1 µM ([6]; Homo sapiens, ALL-1 EXP#1, 1 μM): 91.5% | inhibition at 3 µM ([6]; Homo sapiens, ALL-1 EXP#1, 3 μM): 90.1% | inhibition at 10 µM ([6]; Homo sapiens, ALL-1 EXP#1, 10 μM): > 99.7% | inhibition at 1 µM ([6]; Homo sapiens, ALL-1 EXP#2, 1 μM): 56.1% | inhibition at 3 µM ([6]; Homo sapiens, ALL-1 EXP#2, 3 μM): 93.6% | inhibition at 10 µM ([6]; Homo sapiens, ALL-1 EXP#2, 10 μM): > 99.6% | IC50 ([6]; Homo sapiens, ALL-1, two independent experiments, non-linear regression, read-out: IC50, inhibition of clonogenic growth): 0.29 µM | Colonies/5 × 10^4 Cells ([7]; BT-20 EXP#1, 1 μM): 21.5 Colonies/5 × 10^4 Cells | Colonies/5 × 10^4 Cells ([7]; BT-20 EXP#1, 3 μM): 10.0 Colonies/5 × 10^4 Cells | Colonies/5 × 10^4 Cells ([7]; BT-20 EXP#1, 10 μM): 0.0 Colonies/5 × 10^4 Cells | Colonies/5 × 10^4 Cells ([7]; BT-20 EXP#2, 1 μM): 40.0 Colonies/5 × 10^4 Cells | Colonies/5 × 10^4 Cells ([7]; BT-20 EXP#2, 3 μM): 9.5 Colonies/5 × 10^4 Cells | Colonies/5 × 10^4 Cells ([7]; BT-20 EXP#2, 10 μM): 1.0 Colonies/5 × 10^4 Cells | inhibition at 1 µM ([7]; Homo sapiens, BT-20, BT-20 EXP#1, 1 μM): 78% | inhibition at 3 µM ([7]; Homo sapiens, BT-20, BT-20 EXP#1, 3 μM): 89.8% | inhibition at 10 µM ([7]; Homo sapiens, BT-20, BT-20 EXP#1, 10 μM): > 98.9% | inhibition at 1 µM ([7]; Homo sapiens, BT-20, BT-20 EXP#2, 1 μM): 64.9% | inhibition at 3 µM ([7]; Homo sapiens, BT-20, BT-20 EXP#2, 3 μM): 91.7% | inhibition at 10 µM ([7]; Homo sapiens, BT-20, BT-20 EXP#2, 10 μM): 99.1% | IC50 ([7]; Homo sapiens, BT-20, two independent experiments, non-linear regression, read-out: IC50, inhibition of clonogenic growth): 0.369 µM

— patent US11649232B2, “Synthetic dimeric cinchona alkaloids against cancer” (Ares Pharmaceuticals, LLC, priority 2021, dated 2023)
